Reference: patent US12150995B2, “IRAK degraders and uses thereof” (Kymera Therapeutics, Inc., priority 2020, dated 2024)

These compounds were tested against T1, IRAK4 (Homo sapiens, UniProt Q9NWZ3) (assay: IRAK4 MSD Degradation in OCI-LY10). Conditions: OCI-LY10 cells, Meso Scale Discovery, incubated 4 to 24 hours.
T1 construct: endogenous in cells; host or cells: OCI-LY10
T1 sequence (Q9NWZ3 1-460): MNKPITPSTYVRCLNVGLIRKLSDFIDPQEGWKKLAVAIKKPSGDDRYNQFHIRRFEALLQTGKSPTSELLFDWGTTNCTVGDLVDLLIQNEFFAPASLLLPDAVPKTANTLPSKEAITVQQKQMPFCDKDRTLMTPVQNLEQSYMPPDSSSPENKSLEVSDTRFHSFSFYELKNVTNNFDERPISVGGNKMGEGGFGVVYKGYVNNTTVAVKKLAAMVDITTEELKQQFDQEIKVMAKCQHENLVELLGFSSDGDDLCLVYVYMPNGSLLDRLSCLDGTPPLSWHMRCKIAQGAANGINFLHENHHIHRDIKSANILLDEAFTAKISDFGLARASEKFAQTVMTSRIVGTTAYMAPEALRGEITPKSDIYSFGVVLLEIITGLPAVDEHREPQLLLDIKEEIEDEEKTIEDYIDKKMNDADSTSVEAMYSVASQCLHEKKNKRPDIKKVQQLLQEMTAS
Assay type: cell-based
Outline: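 OCI-LY10 cells (300,000/well) exposed to an 8-point 1:3 series from a top concentration of 1 to 10 μM for 4 to 24 h at 37 °C. IRAK4 remaining in RIPA lysates quantified by MSD sandwich immunoassay; DC50 from a three-parameter logistic fit.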

DC50 | SMILES
> 200 nM | CC(C)(O)c1cc2nc([C@H]3CC[C@H](C(=O)N4CC5(CC(CCNc6cccc7c6C(=O)N(C6CCC(=O)NC6=O)C7=O)C5)C4)CC3)sc2cc1NC(=O)c1cncc(C#N)c1 (some centres unmarked) [I-448]
10 to 50 nM | Cc1cc2nn([C@H]3CC[C@H](CN4CC5CC(C4)N5c4cccc5c4n(C)c(=O)n5C4CCC(=O)NC4=O)CC3)cc2cc1NC(=O)c1cccc(C(F)(F)F)n1 (some centres unmarked) [I-414]
< 10 nM | Cc1cccc(C(=O)Nc2cc3sc([C@H]4CC[C@H](CN5C[C@H]6C[C@@H]5CN6CCNc5cccc6c5C(=O)N(C5CCC(=O)NC5=O)C6=O)CC4)nc3cc2C(C)(C)O)n1 (some centres unmarked) [I-475]
< 10 nM | COc1cc(NC(=O)c2cccc(C(F)(F)F)n2)cc2cn([C@H]3CC[C@H](CN4CCN(c5cccc6c(N7CCC(=O)NC7=O)cncc56)CC4)CC3)nc12 [I-222]
< 10 nM | COc1cc2nn([C@H]3CC[C@H](CN4CC[C@H](c5cccc6c5n(C)c(=O)n6C5CCC(=O)NC5=O)CC4(C)C)CC3)cc2cc1NC(=O)c1cccc(C(F)(F)F)n1 (single isomer, unassigned) [I-292]
< 10 nM | CC(C)Nc1cc(-n2ccc3cc(C#N)cnc32)ncc1C(=O)N[C@H]1CC[C@H](CN2CCC(c3cccc4c3n(C)c(=O)n4C3CCC(=O)NC3=O)CC2)CC1 (some centres unmarked) [I-114]
10 to 50 nM | COc1cc2nc([C@H]3CC[C@H](CN4CCC(c5cccc6c(N7CCC(=O)NC7=O)cncc56)CC4)CC3)sc2cc1NC(=O)c1cccc(C(F)(F)F)n1 [I-191]
< 10 nM | COc1cc2nn([C@H]3CC[C@H](CN4CCN(c5cccc6c5n(C5CC5)c(=O)n6C5CCC(=O)NC5=O)CC4)CC3)cc2cc1NC(=O)c1cccc(C(F)(F)F)n1 (some centres unmarked) [I-426]
100 to 200 nM | Cc1cc(C2CCN(C[C@H]3CC[C@H](n4cc5cc(NC(=O)c6cccc(C(F)(F)F)n6)c(F)cc5n4)CC3)CC2)c2c(c1)n(C1CCC(=O)NC1=O)c(=O)n2C (some centres unmarked) [I-23]
10 to 50 nM | CN(Cc1ccc(-n2cc3cc(NC(=O)c4cccc(C(F)(F)F)n4)c(C(C)(C)O)cc3n2)cc1)[C@H]1CC[C@H](Nc2cccc3c2C(=O)N(C2CCC(=O)NC2=O)C3=O)CC1 (some centres unmarked) [I-463]
< 10 nM | CSc1cc2nn([C@H]3CC[C@H](CN4CCN(c5cccc6c5n(C)c(=O)n6C5CCC(=O)NC5=O)CC4)CC3)cc2cc1NC(=O)c1cccc(C(F)(F)F)n1 (some centres unmarked) [I-307]
> 200 nM | O=C1CCN(c2cncc3cc(C4CCN(C[C@H]5CC[C@H](n6cc7cc(NC(=O)c8cccc(C(F)(F)F)n8)ccc7n6)CC5)CC4)ccc23)C(=O)N1 [I-321]
< 10 nM | N#Cc1cc2nn([C@H]3CC[C@H](CN4CCC(c5cccc6c(N7CCC(=O)NC7=O)cncc56)CC4)CC3)cc2cc1NC(=O)c1cccc(C(F)(F)F)n1 [I-213]
100 to 200 nM | COc1cc2nn([C@H]3CC[C@H](CN4CC5(CN(Cc6cccc7c6n(C)c(=O)n7C6CCC(=O)NC6=O)C5)C4)CC3)cc2cc1NC(=O)c1cncc(C#N)c1 (some centres unmarked) [I-244]
10 to 50 nM | CN(CCCO[C@H]1C[C@@H](Nc2cccc3c2C(=O)N(C2CCC(=O)NC2=O)C3=O)C1)C[C@H]1CC[C@H](n2cc3cc(NC(=O)c4cccc(C(F)(F)F)n4)c(C(C)(C)O)cc3n2)CC1 (some centres unmarked) [I-464]
50 to 100 nM | COc1ccc2c(c1C1CCN(C[C@H]3C[C@H](n4cc5cc(NC(=O)c6cccc(C(F)(F)F)n6)ncc5n4)C3)CC1)n(C)c(=O)n2C1CCC(=O)NC1=O (some centres unmarked) [I-421]
10 to 50 nM | Cn1c(=O)n(C2CCC(=O)NC2=O)c2cccc(N3CCN(C[C@H]4CC[C@H](n5cc6cc(NC(=O)c7cccc(C(F)(F)F)n7)c(N7CCC7)cc6n5)CC4)CC3)c21 (some centres unmarked) [I-387]
50 to 100 nM | COc1cc2nc([C@H]3C[C@H](CN4CCC(c5cccc6c5n(C)c(=O)n6C5CCC(=O)NC5=O)CC4)C3)sc2cc1NC(=O)c1cccc(C(F)(F)F)n1 (some centres unmarked) [I-235]
< 10 nM | COc1cc2nn([C@H]3CC[C@H](CN4CCC(c5cc(F)cc6c5n(C)c(=O)n6C5CCC(=O)NC5=O)CC4)CC3)cc2cc1NC(=O)c1cccc(C(F)(F)F)n1 (some centres unmarked) [I-52]
< 10 nM | CC(C)Nc1cc(-c2ccc3cc(C#N)cnn23)ncc1C(=O)N[C@H]1CC[C@H](CN2CCC(c3ccc4c(N5CCC(=O)NC5=O)cncc4c3)CC2)CC1 [I-198]
100 to 200 nM | Cc1ccc2c(c1C1CCN(C[C@H]3C[C@H](n4cc5cc(NC(=O)c6cccc(C(F)(F)F)n6)ccc5n4)C3)CC1)n(C)c(=O)n2C1CCC(=O)NC1=O (some centres unmarked) [I-148]
< 10 nM | Cn1c(=O)n(C2CCC(=O)NC2=O)c2cccc(C3CCN(C[C@H]4CC[C@H](c5cc6cc(NC(=O)c7cccc(C(F)(F)F)n7)ccn6n5)CC4)CC3)c21 (some centres unmarked) [I-242]
10 to 50 nM | CN(C[C@H]1C[C@H](n2cc3cc(NC(=O)c4cccc(C(F)(F)F)n4)c(C(F)F)cc3n2)C1)C1CCN(c2cccc3c2n(C)c(=O)n3C2CCC(=O)NC2=O)CC1 (some centres unmarked) [I-139]
10 to 50 nM | COc1ccc2c(c1N1CCN(C[C@H]3CC[C@H](NC(=O)c4cnc(-n5ccc6cc(C#N)cnc65)cc4NC(C)C)CC3)CC1)n(C)c(=O)n2C1CCC(=O)NC1=O (some centres unmarked) [I-391]

DC50 | SMILES
10 to 50 nM | Cc1cccc(C(=O)Nc2cc3sc([C@H]4CC[C@H](CN5CCN(CCNc6cccc7c6C(=O)N(C6CCC(=O)NC6=O)C7=O)[C@H](C)C5)CC4)nc3cc2C(C)(C)O)n1 (some centres unmarked) [I-470]
> 200 nM | CC(C)Nc1c(C(=O)N[C@H]2CC[C@H](CN3CCN(c4cccc5c4n(C)c(=O)n5C4CCC(=O)NC4=O)CC3)CC2)cnc2c1Oc1ccc(C#N)cc1O2 (some centres unmarked) [I-410]
< 10 nM | COc1cc2nn([C@H]3CC[C@H](CN4CCC(c5c(OC)ccc6c5n(C)c(=O)n6C5CCC(=O)NC5=O)CC4)CC3)cc2cc1NC(=O)c1cccc(C(F)(F)F)n1 (some centres unmarked) [I-48]
10 to 50 nM | CC(C)(O)c1cc2nc([C@H]3CC[C@H](CN4CC5(CC(CCNc6cccc7c6C(=O)N(C6CCC(=O)NC6=O)C7=O)C5)C4)CC3)sc2cc1NC(=O)c1cncc(C#N)c1 (some centres unmarked) [I-461]
> 200 nM | CN(CCCNc1cccc2c1C(=O)N(C1CCC(=O)NC1=O)C2=O)C[C@H]1CC[C@H](c2nc3cc(C(C)(C)O)c(NC(=O)c4cccc(C(F)(F)F)n4)cc3s2)CC1 (some centres unmarked) [I-490]
50 to 100 nM | Cc1ccc2c(c1C1CCN(C[C@H]3C[C@H](n4cc5cc(NC(=O)c6cccc(C(F)(F)F)n6)c(Cl)cc5n4)C3)CC1)n(C)c(=O)n2C1CCC(=O)NC1=O (some centres unmarked) [I-143]
> 200 nM | COc1cc2nc([C@H]3CC[C@H](CN(C)CCCCNc4cccc5c4C(=O)N(C4CCC(=O)NC4=O)C5=O)CC3)sc2cc1NC(=O)c1cncc(C#N)c1 (some centres unmarked) [I-456]
< 10 nM | CCn1c(=O)n(C2CCC(=O)NC2=O)c2cccc(N3CCN(C[C@H]4CC[C@H](n5cc6cc(NC(=O)c7cccc(C(F)(F)F)n7)c(OC)cc6n5)CC4)CC3)c21 (some centres unmarked) [I-253]
10 to 50 nM | COc1cc2nn([C@H]3CC[C@H](CN(C)C4CCN(c5cc(C)cc6c5n(C)c(=O)n6C5CCC(=O)NC5=O)CC4)CC3)cc2cc1NC(=O)c1cccc(C(F)(F)F)n1 (some centres unmarked) [I-56]
< 10 nM | COc1cc2nc([C@H]3CC[C@H](CN4CCC(c5cccc6c5n(C)c(=O)n6C5CCC(=O)NC5=O)CC4)CC3)sc2cc1NC(=O)c1cncc(Cl)c1 (some centres unmarked) [I-182]
10 to 50 nM | Cn1c(=O)n(C2CCC(=O)NC2=O)c2cccc(N3CCN(C[C@H]4CC[C@H](n5cc6cc(NC(=O)c7cccc(C(F)(F)F)n7)c(C7CC7)cc6n5)CC4)CC3)c21 (some centres unmarked) [I-296]
> 200 nM | O=C1CCN(c2cncc3cc(C4CCN(C[C@H]5CC[C@H](n6cc7cc(NC(=O)c8cccc(C(F)(F)F)n8)ncc7n6)CC5)CC4)ccc23)C(=O)N1 [I-318]
< 10 nM | Cn1c(=O)n(C2CCC(=O)NC2=O)c2cccc(C3CCN(C[C@H]4CC[C@H](n5cc6cc(NC(=O)c7cnn8cc(C#N)cnc78)ccc6n5)CC4)CC3)c21 (some centres unmarked) [I-95]
> 200 nM | CN(C[C@H]1CC[C@H](n2cc3cc(NC(=O)c4cccc(C(F)(F)F)n4)ccc3n2)CC1)C1CCN(c2cccc3c(N4CCC(=O)NC4=O)cncc23)CC1 [I-98]
10 to 50 nM | COc1cc2nn([C@H]3CC[C@H](CN(C)C4CCN(c5c(C)ccc6c5n(C)c(=O)n6C5CCC(=O)NC5=O)CC4)CC3)cc2cc1NC(=O)c1cccc(C(F)(F)F)n1 (some centres unmarked) [I-40]
< 10 nM | COc1cc2nn([C@H]3CC[C@H](CN(C)C4CCN(c5cccc6c5n(C)c(=O)n6C5CCC(=O)NC5=O)CC4)CC3)cc2cc1NC(=O)c1cncc(C(F)(F)F)c1 (some centres unmarked) [I-92]
< 10 nM | Cc1cc2nn([C@H]3CC[C@H](CN4CCC(c5cccc6c5n(C)c(=O)n6C5CCC(=O)NC5=O)CC4)CC3)cc2cc1NC(=O)c1cccc(C(F)(F)F)n1 (some centres unmarked) [I-70]
> 200 nM | CN(CCCO[C@H]1C[C@H](Nc2cccc3c2C(=O)N(C2CCC(=O)NC2=O)C3=O)C1)C[C@H]1CC[C@H](n2cc3cc(NC(=O)c4cccc(C(F)(F)F)n4)ccc3n2)CC1 (some centres unmarked) [I-354]
10 to 50 nM | COc1cc2nn([C@H]3CC[C@H](CN4CC[C@@H](c5cccc6c(N7CCC(=O)NC7=O)cncc56)C4)CC3)cc2cc1NC(=O)c1cccc(C(F)(F)F)n1 [I-291]
10 to 50 nM | CC(C)(O)c1cc2nc([C@H]3CC[C@H](CN4CCN(CCNc5cccc6c5C(=O)N(C5CCC(=O)NC5=O)C6=O)CC4)CC3)sc2cc1NC(=O)c1cccc(C#N)n1 (some centres unmarked) [I-441]
< 10 nM | COc1cc2nn([C@H]3CC[C@H](CN(C)C4CCN(c5cccc6c5n(C)c(=O)n6C5CCC(=O)NC5=O)CC4)CC3)cc2cc1NC(=O)n1ccc2cccnc21 (some centres unmarked) [I-113]
> 200 nM | COc1cc2nc([C@H]3CC[C@H](CN(C)CCCCNc4cccc5c4C(=O)N(C4CCC(=O)NC4=O)C5=O)CC3)sc2cc1NC(=O)c1cncc(C)c1 (some centres unmarked) [I-460]
> 200 nM | CC(C)(O)c1cc2nc([C@H]3CC[C@H](CN4CCO[C@@H](CCCNc5cccc6c5C(=O)N(C5CCC(=O)NC5=O)C6=O)C4)CC3)sc2cc1NC(=O)c1cncc(C#N)c1 (some centres unmarked) [I-454]
